Assay results taken from the supplement of paper PMC10307832.

Experiments:
Experiment in all cases: relative viability (nuclei count vs DMSO), 5 days (fraction); higher = more cells survive
DM3189 + Luminespib = compound: C1CN(CCN1)C2=CC=C(C=C2)C3=CN4C(=C(C=N4)C5=CC=NC6=CC=CC=C56)N=C3 [DM3189] + CCNC(=O)c1noc(-c2cc(C(C)C)c(O)cc2O)c1-c1ccc(CN2CCOCC2)cc1 [Luminespib] (partner 0.01 µM)
Summary of the method: (§1)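 The day after seeding in 1536-well plates, lung cancer cell lines were treated by pin tool with a single drug, or with a fixed anchor-drug dose together with five library-drug doses (not always all listed) in √10 steps. After 5 days, a combined fix-and-stain solution (final 0.05% Triton X-100, 1% formaldehyde, 1 ug/ml Hoechst) was added. Nuclei counted on 4× images gave relative viability as treated counts over vehicle counts, reported as the median of duplicate plates.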

DM3189 + Foretinib = compound: C1CN(CCN1)C2=CC=C(C=C2)C3=CN4C(=C(C=N4)C5=CC=NC6=CC=CC=C56)N=C3 [DM3189] + COc1cc2c(Oc3ccc(NC(=O)C4(C(=O)Nc5ccc(F)cc5)CC4)cc3F)ccnc2cc1OCCCN1CCOCC1 [Foretinib] (partner 0.25 µM)
Summary of the method: as §1

DM3189 + OSI-027 = compound: C1CN(CCN1)C2=CC=C(C=C2)C3=CN4C(=C(C=N4)C5=CC=NC6=CC=CC=C56)N=C3 [DM3189] + COc1cccc2cc(-c3nc([C@H]4CC[C@H](C(=O)O)CC4)n4ncnc(N)c34)[nH]c12 [OSI-027] (partner 0.5 µM)
Summary of the method: as §1

DM3189 + Alpelisib = compound: C1CN(CCN1)C2=CC=C(C=C2)C3=CN4C(=C(C=N4)C5=CC=NC6=CC=CC=C56)N=C3 [DM3189] + Cc1nc(NC(=O)N2CCC[C@H]2C(N)=O)sc1-c1ccnc(C(C)(C)C(F)(F)F)c1 [Alpelisib] (partner 2 µM)
Summary of the method: as §1

DM3189 + Decitabine = compound: C1CN(CCN1)C2=CC=C(C=C2)C3=CN4C(=C(C=N4)C5=CC=NC6=CC=CC=C56)N=C3 [DM3189] + Nc1ncn([C@H]2C[C@H](O)[C@@H](CO)O2)c(=O)n1 [Decitabine] (partner 2 µM)
Summary of the method: as §1

Cell Line	relative viability (DM3189 + Luminespib; first compound 0.08 µM)	relative viability (DM3189 + Luminespib; first compound 0.253 µM)	relative viability (DM3189 + Luminespib; first compound 0.8 µM)	relative viability (DM3189 + Luminespib; first compound 2.53 µM)	relative viability (DM3189 + Foretinib; first compound 0.08 µM)	relative viability (DM3189 + Foretinib; first compound 0.253 µM)	relative viability (DM3189 + Foretinib; first compound 0.8 µM)	relative viability (DM3189 + Foretinib; first compound 2.53 µM)	relative viability (DM3189 + OSI-027; first compound 0.08 µM)	relative viability (DM3189 + OSI-027; first compound 0.253 µM)	relative viability (DM3189 + OSI-027; first compound 0.8 µM)	relative viability (DM3189 + OSI-027; first compound 2.53 µM)	relative viability (DM3189 + Alpelisib; first compound 0.08 µM)	relative viability (DM3189 + Alpelisib; first compound 0.253 µM)	relative viability (DM3189 + Alpelisib; first compound 0.8 µM)	relative viability (DM3189 + Alpelisib; first compound 2.53 µM)	relative viability (DM3189 + Decitabine; first compound 0.08 µM)	relative viability (DM3189 + Decitabine; first compound 0.253 µM)	relative viability (DM3189 + Decitabine; first compound 0.8 µM)	relative viability (DM3189 + Decitabine; first compound 2.53 µM)
SK-LU-1	0.181	0.194	0.176	0.196	0.77	0.66	0.492	0.479	0.373	0.283	0.299	0.284	0.932	0.677	0.638	0.377	0.567	0.585	0.537	0.451
NCI-H441	0.288	0.363	0.314	0.264	1.01	0.726	1.24	0.702	0.747	0.602	0.451	0.486	0.877	0.595	0.837	0.467	0.307	0.227	0.216	0.219
NCI-H1651	0.811	0.836	0.779	1.01	0.83	0.716	0.831	0.827	0.783	0.626	0.864	0.727	1.23	0.986	0.924	0.797	0.703	0.646	0.626	0.67
HARA	0.865	0.784	0.55	1.15	0.979	0.454	0.87	1.09	0.713	0.525	0.292	0.539	0.801	0.766	0.787	0.958	0.523	0.574	0.531	0.555
H3255	1.09	0.957	0.799	0.951	1.13	0.936	0.764	0.85	0.875	0.541	0.625	0.611	0.834	0.739	0.681	0.847	0.718	0.748	0.473	0.71
NCI-H460	0.0319	0.0329	0.0354	0.0318	0.951	1.03	0.995	1.34	1.12	0.72	0.598	0.549	0.507	0.567	0.44	0.184	0.449	0.468	0.438	0.555
ABC-1	0.516	0.489	0.531	0.278	1.14	1.18	1.08	0.906	0.603	0.353	0.492	0.497	0.864	1.07	1.02	0.925	1.1	1.08	1.21	1.04
NCI-H1437	1.15	1.1	1.1	1.1	1.29	1.33	1.33	1.33	0.895	0.862	0.906	1.08	0.837	0.931	0.855	0.905	0.6	0.542	0.554	0.571
HOP-62	0.981	0.905	0.774	1.01	1.05	1.07	1.04	1.16	1.02	0.852	0.817	0.871	1.29	1.11	0.773	0.911	0.214	0.203	0.193	0.21
EPLC-272H	0.738	0.317	0.25	0.281	0.677	0.67	0.783	0.59	0.356	0.261	0.238	0.254	0.876	1.1	0.916	0.838	0.374	0.359	0.364	0.424
COR-L 105	0.812	0.83	0.705	0.778	1.22	1.23	1.06	1.17	1.21	0.928	0.789	0.615	1.17	1.16	1.01	1.26	0.781	0.689	0.535	0.635
NCI-H2023	0.811	0.863	1.09	0.663	0.938	0.867	0.857	0.552	0.428	0.388	0.295	0.398	0.586	0.633	0.574	0.63	0.229	0.225	0.205	0.201
NCI-H2347	0.671	0.504	0.565	0.485	1.24	1.29	0.957	0.843	0.486	0.337	0.455	0.335	0.969	1	0.989	1.14	0.591	0.622	0.576	0.668
NCI-H838	0.309	0.322	0.242	0.246	0.951	0.891	0.689	0.895	0.427	0.376	0.312	0.357	0.965	0.981	0.749	0.989	0.446	0.458	0.431	0.525
NCI-H1355	0.621	0.674	0.626	0.602	0.987	0.968	0.91	0.979	0.482	0.36	0.366	0.39	0.884	0.81	0.678	0.812	0.337	0.39	0.345	0.37
NCI-H1944	0.813	0.673		0.684	0.93	0.81		0.88	0.513	0.397		0.461	0.884	0.817		0.806	0.42	0.467	0.384	0.455

Cell Line	relative viability (DM3189 + Luminespib; first compound 0.08 µM)	relative viability (DM3189 + Luminespib; first compound 0.253 µM)	relative viability (DM3189 + Luminespib; first compound 0.8 µM)	relative viability (DM3189 + Luminespib; first compound 2.53 µM)	relative viability (DM3189 + Foretinib; first compound 0.08 µM)	relative viability (DM3189 + Foretinib; first compound 0.253 µM)	relative viability (DM3189 + Foretinib; first compound 0.8 µM)	relative viability (DM3189 + Foretinib; first compound 2.53 µM)	relative viability (DM3189 + OSI-027; first compound 0.08 µM)	relative viability (DM3189 + OSI-027; first compound 0.253 µM)	relative viability (DM3189 + OSI-027; first compound 0.8 µM)	relative viability (DM3189 + OSI-027; first compound 2.53 µM)	relative viability (DM3189 + Alpelisib; first compound 0.08 µM)	relative viability (DM3189 + Alpelisib; first compound 0.253 µM)	relative viability (DM3189 + Alpelisib; first compound 0.8 µM)	relative viability (DM3189 + Alpelisib; first compound 2.53 µM)	relative viability (DM3189 + Decitabine; first compound 0.08 µM)	relative viability (DM3189 + Decitabine; first compound 0.253 µM)	relative viability (DM3189 + Decitabine; first compound 0.8 µM)	relative viability (DM3189 + Decitabine; first compound 2.53 µM)
NCI-H2085	0.359	0.389	0.478	0.951	0.982	1.02	0.925	1.01	0.835	0.721	0.722	0.864	0.968	0.962	0.976	0.893	0.504	0.565	0.564	0.591
NCI-H1395	0.662	0.589	0.492	0.646	0.896	0.929	0.831	1.03	0.709	0.572	0.54	0.6	0.927	0.871	1.04	1.34	0.663	0.703		0.712
NCI-H2126	1.13	0.875	0.913	0.889	1.14	1.11	1.18	1.16	0.79	0.704	0.67	0.645	0.838	0.745	0.763	0.805	0.558	0.547	0.53	0.61
PC-14	0.161	0.154	0.152	0.154	1.02	0.985	0.876	1.07	1.05	0.837	0.76	0.946	0.983	0.996	0.768	1.1	0.303	0.237	0.21	0.253
NCI-H1793	0.184	0.196	0.171	0.174	0.768	0.847	0.905	0.783	0.279	0.247	0.245	0.319	0.758	0.877	0.982	1.16	0.55	0.458	0.461	0.541
LC-2-ad	0.827	0.926	0.891	0.979	1.08	0.926	0.931	0.992	0.801	0.784	0.726	0.87	0.822	0.76	0.857	0.71	0.851	0.77	0.826	0.916
LOU-NH91	0.361	0.329	0.316	0.377	1.08	0.942	0.891	0.96	0.869	0.719	0.681	0.801	0.765	0.702	0.668	0.683	0.854	0.799	0.739	0.863
NCI-H1734	0.202	0.226	0.207	0.199	0.888	0.829	0.756	0.823	0.684	0.572	0.592	0.565	0.677	0.706	0.635	0.661	0.528	0.506	0.49	0.524
NCI-H596	1.27	1.07	1.09	0.851	1.12	0.955	0.695	1.06	0.799	0.746	0.615	0.643	0.578	0.517	0.386	0.478	1.09	1.09	0.842	1.19
NCI-H1993	0.785	0.705	0.712	0.885	0.766	0.744	0.672	0.907	0.541	0.49	0.476	0.506		0.671	0.641	0.7	0.579	0.654	0.571	0.499
NCI-H647	0.122	0.146	0.115	0.136	1.06	1.13	1.08	1.01	0.724	0.579	0.585	0.528	1.01	0.704	0.659	0.179	0.365	0.43	0.418	0.403
NCI-H1755	0.384	0.476	0.425	0.419	0.914	0.855	0.718	0.826	0.732	0.688	0.574	0.786	0.848	0.877	0.815	0.926	0.739	0.694	0.729	0.671
SW 1573	0.261	0.232	0.192	0.33	1	0.737	1.05	0.99	0.569	0.618	0.488	0.523	0.869	0.59	0.711	0.774	0.616	0.381	0.46	0.263
NCI-H650	0.761	0.729	0.701	0.767	1.04	0.964	0.912	1.02	0.578	0.496	0.483	0.502	1.35	1.07	0.975	0.915	0.288	0.313	0.242	0.292
UMC-11	1.01	0.986	0.882	0.685	1.01	0.975	0.988	1.02	0.531	0.461	0.395	0.51	0.994	0.998	0.794	0.749	0.616	0.506	0.602	0.511
